{"source": "patent US5643784A", "about": "“Indan derivatives” (H, Lundbeck A/S, priority 1990, dated 1997)", "key": {"5-HT2 receptors": {"biological_target": "T1, 5-HT2 receptors (Rattus norvegicus, UniProt P14842)", "T1 construct": "cortical tissue is dissected and weighed; from tissue; host or cells: cortex of male Wistar rats, crude membranes", "T1 sequence (P14842 whole entry)": "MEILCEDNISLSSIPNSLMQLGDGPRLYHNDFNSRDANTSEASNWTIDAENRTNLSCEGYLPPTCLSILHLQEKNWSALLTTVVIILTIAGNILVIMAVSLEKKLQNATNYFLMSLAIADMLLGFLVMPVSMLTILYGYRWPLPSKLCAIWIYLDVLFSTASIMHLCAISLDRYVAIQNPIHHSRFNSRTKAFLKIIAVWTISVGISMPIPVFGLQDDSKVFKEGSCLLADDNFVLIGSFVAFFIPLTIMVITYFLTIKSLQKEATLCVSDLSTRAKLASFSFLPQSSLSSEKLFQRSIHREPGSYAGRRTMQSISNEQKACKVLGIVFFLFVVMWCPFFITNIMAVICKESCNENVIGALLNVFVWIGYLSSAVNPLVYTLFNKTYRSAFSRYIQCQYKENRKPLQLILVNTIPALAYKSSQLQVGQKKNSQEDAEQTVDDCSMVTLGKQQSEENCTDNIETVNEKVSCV", "assay": "Inhibition of 3H-ketanserin binding to 5-HT2 receptors in rat cortex in vitro", "details": "3H-Ketanserin 0.5 nM, rat cortex, 37° C., 30 min; read-out: Receptor Binding; IC50 5-HT2 3H-Ket", "protocol": "Method in Hyttel, Pharmacology & Toxicology, 61, 126-129, 1987.\nMale Wistar (Mol:Wist) rats (125-250 g) are sacrificed and cortical tissue is dissected and weighed. The tissue is homogenized (Ultra Turrax, 10 sec.) in 10 ml of ice-cold 50 mM tris buffer pH 7.7 (at 25° C.). The centrifuge glassware used in this step has been rinsed by sonication for 10 min. in ethanol. The homogenate is centrifuged twice at 20,000 g for 10 min. at 4° C. with rehomogenization of the pellet in 10 ml ice-cold buffer. The final pellet is homogenized in 500 vol (w/v) ice-cold buffer.\nIncubation tubes kept on ice in triplicate receive 100 μl of drug solution in water (or water for total binding) and 2000 μl of tissue suspension (final tissue content corresponds to 4 mg original tissue). […] After incubation for 30 min. the samples are filtered under vacuum (0-50 mBar) through Whatman GF/F filters (25 mm). The tubes are rinsed with 5 ml ice-cold buffer which are then poured on the filters. Thereafter, the filters are washed with 2×5 ml of buffer. The filters are placed in counting vials and 4 ml of appropriate scintillation fluid (e.g. Picofluor™15) are added. After shaking for 1 h and storage 2 hrs in the dark the content of radioactivity is determined by liquid scintillation counting. Specific binding is obtained by subtracting the nonspecific binding in the presence of 1 μM mianserin.\n(§1) For determination of the inhibition of binding five concentrations of drugs covering 3 decades are used.\nThe IC50 value is determined as the concentration at which the binding is 50% of the total binding in control samples minus the nonspecific binding in the presence of 1 μM mianserin."}, "α1 adrenoceptors": {"biological_target": "α1 adrenoceptors", "assay": "Inhibition of 3H-prazosin binding to α1 adrenoceptors in rat brain in vitro", "details": "3H-Prazosin 0.25 nM, rat brain, 25° C., 20 min; read-out: Receptor Binding; IC50 α1 3H-Praz", "protocol": "INHIBITION OF ^3 H-PRAZOSIN BINDING TO α1 ADRENOCEPTORS IN RAT BRAIN IN VITRO\nMethod and results in Hyttel & Larsen, J. Neurochem, 44, 1615-1622, 1985; Skarsfeldt & Hyttel, Eur. J. Pharmacol. 125, 323-340, 1986.\nMale Wistar (Mol:Wist) rats (125-200 g) are sacrificed and brain tissue is dissected and weighed. The tissue is homogenized (Ultra Turrax, 10 sec.) in 10 ml of ice-cold […] Tris buffer pH 7,7 (at 25° C.). The homogenate is centrifuged twice at 20,000 g for 10 min. at 4° C. with rehomogenization of the pellet in 10 ml ice-cold buffer. The final pellet is homogenized in 400 vol (w/v) ice-cold buffer.\nIncubation tubes kept on ice in triplicate receive 100 μl of drug solution in water (or water for total binding) and 4000μl of tissue suspension (final tissue content corresponds to 10 mg original tissue). The binding experiment is initiated by addition of 100 μl of ^3 H-Prazosin (final concentration 0.25 nM) and by placing the tubes in a 25° C. water bath. After incubation for 20 min. the samples are filtered under vacuum (0-50 mBar) through Whatman GF/F filters (25 mm). The tubes are rinsed with 5 ml ice-cold buffer which then are poured on the filters. Thereafter, the filters are washed with 5 ml of buffer. The filters are placed in counting vials and 4 ml of appropriate scintillation fluid (e.g. Picofluor™15) are added. After shaking for 1 h and storage 2 hrs in the dark the content of radioactivity is determined by liquid scintillation counting. Specific binding is obtained by subtracting the nonspecific binding in the presence of 1 μM of Prazosin.\nas §1\nThe measured cpm are plotted against drug concentration on semilogarithmic paper and the best fitting S-shaped curve is drawn. The IC50 value is determined as the concentration at which the binding is 50% of the total binding in control samples minus the nonspecific binding in the presence of 1 μM of Prazosin.\n^3 H-Prazosin=[furoyl-5-^3 H]-Prazosin from New England Nuclear, specific activity approximately 20 Ci/mmol."}}, "data": [{"smiles": "OCCN1CCN([C@H]2C[C@H](c3ccc(F)cc3)c3cc(F)ccc32)CC1", "note": "(relative stereo) [Compound 2, Trans-4-[5-fluoro-3-(4-fluorophenyl)-2,3-dihydro-1H-inden-1-yl]-1-piperazine ethanol]", "values": [{"measurement": "IC50", "setting": "5-HT2 receptors", "value": 21, "unit": "nM"}, {"measurement": "IC50", "setting": "α1 adrenoceptors", "value": 150, "unit": "nM"}]}, {"smiles": "O=C1NCCN1CCN1CCN([C@@H]2C[C@@H](c3ccc(F)cc3)c3cc(Cl)ccc32)CC1", "note": "(relative stereo) [Compound 4, Trans-1-[2-[4-[5-chloro-3-(4-fluorophenyl)-2,3-dihydro-1H-inden-1-yl]piperazine-1-yl]ethyl]-2-imidazolidinone]", "values": [{"measurement": "IC50", "setting": "5-HT2 receptors", "value": 2.9, "unit": "nM"}, {"measurement": "IC50", "setting": "α1 adrenoceptors", "value": 200, "unit": "nM"}]}, {"smiles": "Cc1ccc2c(c1)[C@@H](c1ccc(F)cc1)C[C@@H]2N1CCN(CCN2CCN(C(C)C)C2=O)CC1", "note": "(relative stereo) [Compound 12, Trans-1-[2-[4-[3-(4-fluorophenyl)-5-methyl-2,3-dihydro-1-H-inden-1-yl]piperazin-1-yl]ethyl]-3-isopropyl-2-imidazolidinone]", "values": [{"measurement": "IC50", "setting": "5-HT2 receptors", "value": 3, "unit": "nM"}, {"measurement": "IC50", "setting": "α1 adrenoceptors", "value": 120, "unit": "nM"}]}, {"smiles": "O=C1OCCN1CCN1CCN([C@H]2C[C@H](c3ccc(F)cc3)c3cc(Cl)ccc32)CC1", "note": "(relative stereo) [Compound 14, Trans-3-[2-[4-[5-chloro-3-(4-fluorophenyl)-2,3-dihydro-1-H-inden-1-yl]piperazin-1-yl]ethyl]-2-oxazolidinone]", "values": [{"measurement": "IC50", "setting": "5-HT2 receptors", "value": 23, "unit": "nM"}, {"measurement": "IC50", "setting": "α1 adrenoceptors", "value": 140, "unit": "nM"}]}, {"smiles": "O=C1CCCN1CCN1CCN([C@H]2C[C@H](c3ccc(F)cc3)c3cc(Cl)ccc32)CC1", "note": "(relative stereo) [Compound 15, Trans-1-[2-[4-[5-chloro-3-(4-fluorophenyl)-2-3-dihydro-1-H-inden-1-yl]piperazin-1-yl]ethyl]-2-pyrrolidinone]", "values": [{"measurement": "IC50", "setting": "5-HT2 receptors", "value": 10, "unit": "nM"}, {"measurement": "IC50", "setting": "α1 adrenoceptors", "value": 370, "unit": "nM"}]}, {"smiles": "O=C1NCCN1CCCN1CCN([C@H]2C[C@H](c3ccc(F)cc3)c3cc(Cl)ccc32)CC1", "note": "(relative stereo) [Compound 16, Trans-1-[3-[4-[5-chloro-3-(4-fluorophenyl)-2,3-dihydro-1-H-inden-1-yl]piperazin-1-yl]propan-1-yl]-2-imidazolidinone]", "values": [{"measurement": "IC50", "setting": "5-HT2 receptors", "value": 10, "unit": "nM"}, {"measurement": "IC50", "setting": "α1 adrenoceptors", "value": 73, "unit": "nM"}]}, {"smiles": "O=c1[nH]c2ccccc2n1CCN1CCN([C@@H]2C[C@@H](c3ccc(F)cc3)c3cc(Cl)ccc32)CC1", "note": "(relative stereo) [Compound 25, Trans-1-[2-[4-[5-chloro-3-(4-fluorophenyl)-2,3-dihydro-1H-inden-1-yl]piperazin-1-yl]ethyl]-benzimidazolin-2-one]", "values": [{"measurement": "IC50", "setting": "5-HT2 receptors", "value": 5.6, "unit": "nM"}]}, {"smiles": "Fc1ccc([C@@H]2C[C@@H](N3CCN(CCN4CCNC4=S)CC3)c3ccc(F)cc32)cc1", "note": "(relative stereo) [Compound 29, Trans-1-[2-[4-[5-fluoro-3-(4-fluorophenyl)-2,3-dihydro-1H-inden-1-yl]piperazin-1-yl]-ethyl]-2-imidazolidinthione]", "values": [{"measurement": "IC50", "setting": "5-HT2 receptors", "value": 1.5, "unit": "nM"}, {"measurement": "IC50", "setting": "α1 adrenoceptors", "value": 110, "unit": "nM"}]}, {"smiles": "Fc1ccc([C@@H]2C[C@@H](N3CCN(CCN4CCCNC4=S)CC3)c3ccc(F)cc32)cc1", "note": "(relative stereo) [Compound 30, Trans-1-[2-[4-[5-fluoro-3-(4-fluorophenyl)-2,3-dihydro-1H-inden-1-yl]piperazin-1-yl]ethyl]-tetrahydro-2(1H)-pyrimidinethione]", "values": [{"measurement": "IC50", "setting": "5-HT2 receptors", "value": 1.7, "unit": "nM"}, {"measurement": "IC50", "setting": "α1 adrenoceptors", "value": 110, "unit": "nM"}]}, {"smiles": "Fc1ccc([C@@H]2C[C@@H](N3CCN(CCN4CCCNC4=S)CC3)c3ccc(Cl)cc32)cc1", "note": "(relative stereo) [Compound 32, Trans-1-[2-[4-[5-chloro-3-(4-fluorophenyl)-2,3-dihydro-1H-inden-1-yl]piperazin-1-yl]ethyl]-tetrahydro-2(1H)-pyrimidinethione]", "values": [{"measurement": "IC50", "setting": "5-HT2 receptors", "value": 1.5, "unit": "nM"}, {"measurement": "IC50", "setting": "α1 adrenoceptors", "value": 170, "unit": "nM"}]}, {"smiles": "OCCN1CCN([C@H]2C[C@H](c3ccc(F)cc3)c3cc(F)ccc32)CC1", "note": "(single isomer, unassigned) [(+)-2]", "values": [{"measurement": "IC50", "setting": "5-HT2 receptors", "value": 12, "unit": "nM"}, {"measurement": "IC50", "setting": "α1 adrenoceptors", "value": 72, "unit": "nM"}]}, {"smiles": "OCCN1CCN([C@H]2C[C@H](c3ccc(F)cc3)c3cc(Cl)ccc32)CC1", "note": "(single isomer, unassigned) [(+)-3]", "values": [{"measurement": "IC50", "setting": "5-HT2 receptors", "value": 230, "unit": "nM"}, {"measurement": "IC50", "setting": "α1 adrenoceptors", "value": 2500, "unit": "nM"}]}, {"smiles": "CC(C)N1CCN(CCN2CCN([C@H]3C[C@H](c4ccc(F)cc4)c4cc(Cl)ccc43)CC2)C1=O", "note": "(single isomer, unassigned) [(+)-11]", "values": [{"measurement": "IC50", "setting": "5-HT2 receptors", "value": 75, "unit": "nM"}, {"measurement": "IC50", "setting": "α1 adrenoceptors", "value": 340, "unit": "nM"}]}, {"smiles": "Fc1ccc([C@@H]2C[C@@H](N3CCN(CCN4CCCNC4=S)CC3)c3ccc(Cl)cc32)cc1", "note": "(single isomer, unassigned) [(+)-32, (+)-Trans-1-[2-[4-[5-chloro-3-(4-fluorophenyl)-2,3-dihydro-1H-inden-1-yl]piperazin-1-yl]ethyl]-tetrahydro-2(1H)-pyrimidinethione]", "values": [{"measurement": "IC50", "setting": "5-HT2 receptors", "value": 21, "unit": "nM"}, {"measurement": "IC50", "setting": "α1 adrenoceptors", "value": 350, "unit": "nM"}]}, {"smiles": "O=C1NCCCN1CCN1CCN([C@@H]2C[C@@H](c3ccc(F)cc3)c3cc(Cl)ccc32)CC1", "note": "(single isomer, unassigned) [(+)-34, (+)-Trans-1-[2-[4-[5-chloro-3-(4-fluorophenyl)-2,3-dihydro-1H-inden-1-yl]piperazin-1-yl]ethyl]-tetrahydro-2(1H)-pyrimidinone]", "values": [{"measurement": "IC50", "setting": "5-HT2 receptors", "value": 120, "unit": "nM"}]}, {"smiles": "OCCN1CCN([C@H]2C[C@H](c3ccc(F)cc3)c3cc(F)ccc32)CC1", "note": "(single isomer, unassigned) [(-)-2]", "values": [{"measurement": "IC50", "setting": "5-HT2 receptors", "value": 500, "unit": "nM"}, {"measurement": "IC50", "setting": "α1 adrenoceptors", "value": 1100, "unit": "nM"}]}, {"smiles": "OCCN1CCN([C@H]2C[C@H](c3ccc(F)cc3)c3cc(Cl)ccc32)CC1", "note": "(single isomer, unassigned) [(-)-3]", "values": [{"measurement": "IC50", "setting": "5-HT2 receptors", "value": 11, "unit": "nM"}, {"measurement": "IC50", "setting": "α1 adrenoceptors", "value": 210, "unit": "nM"}]}, {"smiles": "CC(C)N1CCN(CCN2CCN([C@@H]3C[C@@H](c4ccc(F)cc4)c4cc(Cl)ccc43)CC2)C1=O", "note": "(single isomer, unassigned) [(-)-11, (-)-Trans-1-[2-[4-[5-chloro-3-(4-fluorophenyl)-2,3-dihydro-1H-inden-1-yl]piperazin-1-yl]-ethyl]-3-isopropyl-2-imidazolidinone]", "values": [{"measurement": "IC50", "setting": "5-HT2 receptors", "value": 1.1, "unit": "nM"}, {"measurement": "IC50", "setting": "α1 adrenoceptors", "value": 210, "unit": "nM"}]}, {"smiles": "Fc1ccc([C@@H]2C[C@@H](N3CCN(CCN4CCCNC4=S)CC3)c3ccc(F)cc32)cc1", "note": "(single isomer, unassigned) [(-)-30, (-)-Trans-1-[2-[4-[5-fluoro-3-(4-fluorophenyl)-2,3-dihydro-1H-inden-1-yl]piperazin-1-yl]ethyl]-tetrahydro-2(1H)-pyrimidinethione]", "values": [{"measurement": "IC50", "setting": "5-HT2 receptors", "value": 42, "unit": "nM"}]}, {"smiles": "O=C1NCCCN1CCN1CCN([C@@H]2C[C@@H](c3ccc(F)cc3)c3cc(Cl)ccc32)CC1", "note": "(single isomer, unassigned) [(-)-34, (-)-Trans-1-[2-[4-[5-chloro-3-(4-fluorophenyl)-2,3-dihydro-1H-inden-1-yl]piperazin-1-yl]ethyl]-tetrahydro-2(1H)-pyrimidinone]", "values": [{"measurement": "IC50", "setting": "5-HT2 receptors", "value": 1.3, "unit": "nM"}, {"measurement": "IC50", "setting": "α1 adrenoceptors", "value": 62, "unit": "nM"}]}]}
